ChEMBL document CHEMBL3217556, “Synthesis and anti-Helicobacter pylori activity of analogues of spirolaxine methyl ether” (2012)
≈ marks a conversion by molar mass, not a printed value.

Tested on: Helicobacter pylori
Assay: Antibacterial activity against Helicobacter pylori assessed as bacterial colonies formation incubated for 24 hrs measured after up to 5 days culturing time by CFU counting analysis
Format: functional

Row | SMILES | MBC | MIC
1 | COc1cc(OC)c2ccn(CCCC[C@H]3CCC[C@]4(CC[C@H](C)O4)O3)c2c1 | 3 µg/mL (≈ 7.74 µM) | 3 µg/mL (≈ 7.74 µM)
2 | COc1cc(OC)c2ccn(CCCCC[C@H]3CCC[C@]4(CC[C@H](C)O4)O3)c2c1 | 8.3 µg/mL (≈ 20.7 µM) | 8.3 µg/mL (≈ 20.7 µM)
3 | COc1cc(OC)c2ccn(CCCCCCCC[C@H]3CCC[C@]4(CC[C@H](C)O4)O3)c2c1 | > 100 µg/mL | > 100 µg/mL
4 | COc1cc(OC)c2c(c1)N(CCCC[C@H]1CCC[C@]3(CC[C@H](C)O3)O1)C(=O)C2 | 12.5 µg/mL (≈ 31 µM) | 12.5 µg/mL (≈ 31 µM)
5 | COc1cc(OC)c2c(c1)N(CCCCC[C@H]1CCC[C@]3(CC[C@H](C)O3)O1)C(=O)C2 | 12.5 µg/mL (≈ 29.9 µM) | 12.5 µg/mL (≈ 29.9 µM)
6 | COc1cc(OC)c2c(c1)N(CCCCCCCC[C@H]1CCC[C@]3(CC[C@H](C)O3)O1)C(=O)C2 | 16 µg/mL (≈ 34.8 µM) | 16 µg/mL (≈ 34.8 µM)
7 | COc1cc(OC)c2c(c1)[C@@H](CCCC[C@H]1CCC[C@]3(CC[C@H](C)O3)O1)OC2=O | 12.5 µg/mL (≈ 30.9 µM) | 12.5 µg/mL (≈ 30.9 µM)
8 | COc1cc(OC)c2c(c1)[C@@H](CCCCCCCC[C@H]1CCC[C@]3(CC[C@H](C)O3)O1)OC2=O | 3 µg/mL (≈ 6.51 µM) | 3 µg/mL (≈ 6.51 µM)
9 | COc1cc(OC)c2c(c1)[C@@H](CCCCC[C@H]1CCC[C@]3(CC[C@@H](C)O3)O1)OC2=O | 1 µg/mL (≈ 2.39 µM) | 2 µg/mL (≈ 4.78 µM)
